How the values were obtained:
primary human NK cells = test: 2D live imaging of primary NK cell migration on EL08.1D2 stromal cells; format: cell-based; settings: 10 uM Cpd60 vs vehicle; three donors
Procedure: 2D migration studies were done as previously reported. In brief, EL08.1D2 stromal cells were grown to a confluent monolayer on Lab-Tek chamber slides pre-coated with 0.1% gelatin (Stemcell Technologies). […] Cells were imaged in 96-well ImageLock plates (Essen Bioscience) on the IncuCyte ZOOM Live-Cell Analysis System (Essen Bioscience) at 37° C. every 2 min in the phase-contrast mode (10× objective). Tracking of live cells was done using the manual tracking feature in Volocity or FIJI. Tracks were plotted using the Chemotaxis plugin of FUI. Cells that were in the field of imaging for fewer than two frames were discarded, as were cells which were non-adherent or floating. EL08.1D2 cells were used as de facto fiducial markers to ensure that neither they or the microscope stage was drifting and causing apparent NK cell movement.
Length and displacement measurements were derived directly from tracked cells and graphed using GraphPad software. Velocity data was obtained by dividing the total track length by the time of imaging.
2D migration studies were done as previously reported (31, 32). In brief, EL08.1D2 stromal cells were grown to a confluent monolayer on flat-bottomed 96 well ImageLock plates (Essen Bioscience) pre-coated with 0.1% gelatin (Stemcell Technologies). […] Freshly isolated human NK cells were imaged in 96-well on the IncuCyte ZOOM Live-Cell Analysis System (Essen Bioscience) at 37° C. every 2 min in the phase-contrast mode (10× objective). Tracking of live cells was done using the manual tracking feature in Fiji (33). Tracks were plotted using the Chemotaxis plugin of FIJI. Cells that were in the field of imaging for fewer than two frames were discarded, as were cells which were non-adherent or floating. EL08.1D2 cells were used as de facto fiducial markers to ensure that neither they or the microscope stage was drifting and causing apparent NK cell movement. Length and displacement measurements were derived directly from tracked cells and graphed using GraphPad software. Velocity data was obtained by dividing the total track length by the time of imaging.

NK92-GFP cells [1] = test: NK92-GFP infiltration into cell clusters embedded in 3D matrix; format: cell-based, human; settings: 10 uM Cpd60
Procedure: (§1) 3D clusters were generated, embedded and stained as previously described. In brief, clusters were generated by plating 1,000 cells per well into 96-well Nunclon Sphera low adhesion plates (Thermo Scientific, cat #174925) and incubated overnight at 37° C. The following day, 6 clusters were embedded into an ECM containing 2,000 NK cells and plated into one well of a Nunc Lab-Tek II 8-well chamber slide (ThermoScientific, cat #154534PK). The ECM mixture consisted of 20% growth factor reduced Matrigel (Corning, 10-12 mg/ml stock concentration, #354230) and 80% rat tail collagen type I at 3 mg/mL (gibco, A1048301). Cells were either imaged for the following 24 hours every 30 minutes using the Zeiss LSM800 scanning confocal microscope or allowed to incubate overnight at 37° C. After 24 hours, cells in matrix were fixed with 5.4% formalin for 1 hour, permeabilized with 0.5% Triton-X and blocked using goat serum. For invasion assays, NK-92-GFP cells were stained with anti-GFP (ThermoFisher, cat #A-11122). For the cell lysis assays clusters were stained using anti-cleaved caspase 3 (Cell Signaling, cat #9661). Hoechst 33342, phalloidin, and secondary antibodies labeled with Alexa Fluor 488 nm, 546 nm, 647 nm, or 680 nm (Invitrogen) were used.
3D clusters were generated, embedded and stained as previously described (34, 35). In brief, clusters were generated by plating 1,000 cells per well into 96-well Nunclon Sphera low adhesion plates (Thermo Scientific, cat #174925) and incubated overnight at 37° C. The following day, 6 clusters were embedded into an ECM containing 2,000 NK cells were plated into one well of a Nunc Lab-Tek II 8-well chamber slide (ThermoScientific, cat #154534PK). To ensure equal distribution of NK cells in Matrigel, the NK cells were first suspended in the Matrigel stock, which was then aliquoted for individual cluster embedding. The ECM mixture consisted of 20% growth factor reduced Matrigel (Corning, 10-12 mg/ml stock concentration, #354230) and 80% rat tail collagen type I at 3 mg/mL (Gibco, A1048301). […]

PANC-1 cell clusters = test: NK cell lysis of PANC-1 clusters in 3D matrix (cleaved caspase 3); format: cell-based, human; settings: 10 uM Cpd60
Procedure: as §1
3D clusters were generated, embedded and stained as previously described (34, 35). […]

NK92-GFP cells [2] = test: NK92-GFP infiltration into PDAC tumor spheroids; format: cell-based, human; settings: 10 uM Cpd60, 4 hours
Procedure: PSC or PANC-1 spheroids were generated by plating 10,000 cells in a 0.1% agarose coated U-bottomed 96-well plate. PSC+PANC-1 spheroids were generated by plating 5,000 cells of each cell type. Aggregation was promoted by centrifuging the cells at 1000 rpm for 5 minutes. Cells incubated overnight at 37° C. The next day, 1,000 NK92-GFP cells were added per well and incubated for 4 hours at 37° C. Spheroids were imaged using the Olympus IX-71 Inverted Epifluorescent Microscope at 5×. Images were analyzed in FIJI. All images underwent identical contrast enhancement and background reduction. Then a line was drawn from spheroid edge to spheroid center and GFP intensity along that line was measured. Graphs of resulting data and statistical analysis were generated in Graphpad Prism 9.

N#C[C@@H]1CC(F)(F)CN1C(=O)CNC(=O)c1ccnc2ccccc12 [Cpd60]
Euclidian distance traveled by NK cells (primary human NK cells): no significant impact
NK cell velocity (primary human NK cells): significantly reduced
accumulated distance traveled by NK cells (primary human NK cells): significantly reduced
NK92-GFP cell infiltration into PANC-1 clusters embedded in matrix (NK92-GFP cells [1]; 24-hour coculture): significantly reduced
NK92-GFP cell infiltration into PSC clusters embedded in matrix (NK92-GFP cells [1]; 24-hour coculture): significantly reduced
cluster size (NK92-GFP cells [1]; 80% collagen/20% Matrigel): no effect
PANC-1 cell apoptosis (cleaved caspase 3) in 3D cultures with NK92 (PANC-1 cell clusters; NK92 cells): significantly reduced
donor NK cell lysis of PANC-1 cells in 3D (PANC-1 cell clusters; NK cells from two donors, normalized to cluster area): reduced
NK cell content in PANC-1 spheroids (NK92-GFP cells [2]; any region): no effect
NK cell content in PSC spheroids (NK92-GFP cells [2]; mid-edge and mid-center regions): significantly reduced
NK cell content in PSC+PANC-1 spheroids (NK92-GFP cells [2]; mid-edge region): significantly reduced
